Results from PMC5537347, “A short D-enantiomeric antimicrobial peptide with potent immunomodulatory and antibiofilm activity against multidrug-resistant Pseudomonas aeruginosa and Acinetobacter baumannii” (Scientific Reports, 2017).
≈ marks a conversion by molar mass, not a printed value. Like-named read-outs stand apart in the source and are kept apart here. Peptide text beside a SMILES is read from it.

Tests used:
[1] = tested on: C. elegans strain glp-4;sek 1; assay: Toxicity of peptides in uninfected C. elegans; assay type: in vivo, Caenorhabditis elegans; conditions: worms grown four days with peptide; D-RR4 and colistin at 8 × MIC
Method: To test the efficacy of the synthetic peptides to protect against infections in vivo, we utilized a C. elegans model of bacterial infection. This model has been used extensively for early-stage evaluation of promising antimicrobials, [35], [36]. Initially, the lethal dose of D-RR4 against uninfected nematodes was determined.
(A) Evaluation of toxicity of peptides in Caenorhabditis elegans. C. elegans strain glp-4;sek 1 was grown for four days in the presence of peptides at different concentrations. Worms were monitored daily and the live worms were counted. Results are expressed as a Kaplan-Meier survival curve. (B) Evaluation of antimicrobial activity of peptides to reduce the bacterial CFU inside infected Caenorhabditis elegans. C. elegans strain glp-4; sek 1 were infected with P. aeruginosa PAO1, colistin-resistant P. aeruginosa 1109, or A. baumannii ATCC BAA-1605. […] After treatment, worms were lysed and bacteria were counted. One asterisk (*) indicates significant difference with the negative control. Two asterisks (**) indicates significant difference with the monotherapy treatment (P < 0.05). Results are expressed as means from three biological replicates ± standard deviation. (C) Efficacy of peptides in a Caenorhabditis elegans model of bacterial infection. […] Worms were monitored daily and the live worms were counted. Results are expressed as a Kaplan-Meier survival curve. C. elegans receiving no treatment served as a negative control.

[2] = tested on: human red blood cells; assay: Hemolysis assay; assay type: cell-based; conditions: for HC50: red cells of human
Method: Next, we assessed the hemolytic activity of the peptides on human red blood cells (RBCs).
Peptides were assayed for hemolytic activity against human red blood cells, as described previously.

[3] = tested on: colistin-resistant P. aeruginosa isolated from cystic fibrosis patients; conditions: colistin-resistant isolated from cystic fibrosis patients
Excerpt: (§1) The broth microdilution technique was utilized to assess the MIC of designed peptides according to the guidelines of the Clinical and Laboratory Standards Institute (CLSI)[37].

[4] = tested on: P. aeruginosa and A. baumannii isolates
Excerpt: as §1

[5] = tested on: murine macrophages (J774.1A); assay: Cytotoxicity, MTS assay; conditions: 24 h
Method: (§2) A significant limitation for translating AMPs into clinical applications is their toxicity to host (mammalian) cells. Herein, we evaluated the cytotoxic effects of our peptide constructs against murine macrophages (J774.1A) and human keratinocytes (HaCaT cells), via the MTS assay.
(§3) The peptides were assayed for potential in vitro toxicity against human keratinocytes (HaCaT) and murine macrophage cells (J774A.1), as described before, with the following modifications. Cells were treated with peptides at different concentrations for 24 hours. The therapeutic index of the peptides was calculated as the ratio of mammalian EC50 (the concentration of peptide that inhibited growth of 50% of the mammalian cells) to the MIC50 of peptides against bacteria.

[6] = tested on: human keratinocytes (HaCaT cells); assay: Cytotoxicity, MTS assay; conditions: 24 h
Method: as §2, §3

[7] = tested on: IL-6; assay: Anti-inflammatory effect on LPS-stimulated macrophages, ELISA; assay type: cell-based, murine; conditions: J774A.1 cells, LPS 150 ng/mL, six hours
Method: (§4) Figure 3 Ability of peptides to neutralize LPS and reduce inflammatory cytokines expression. (A) LPS binding activity of peptides. Peptides at different concentrations were incubated with one endotoxin unit (EU) of LPS at 37 °C for 30 minutes. […] The binding of peptides with LPS is expressed as percent change relative to the untreated samples. (B) Anti-inflammatory effect of peptides on LPS-stimulated macrophages. J774A.1 cells were stimulated with LPS (150 ng/mL final concentration) in the presence of different concentrations of peptides. Cells stimulated with LPS alone and untreated cells served as controls. Cells were incubated for six hours at 37 °C before the supernatant from each treatment group was collected. Detection of tumor necrosis factor-α (TNF-α) and interleukin-6 (IL-6) in supernatants was determined using ELISA. Cytokine levels are expressed as percent change relative to the LPS-stimulated control. Statistical analysis was calculated using one-way ANOVA, with post hoc Tukey’s multiple comparisons test. P < 0.05 was considered significant. One asterisk (*) indicates significant difference with the negative control.
(§5) To assess the anti-inflammatory effect of our peptides on LPS-stimulated macrophages, J774A.1 cells were seeded and incubated as described above (for toxicity assessment). Next, the cells were stimulated with LPS (150 ng/ml final concentration) in the presence of different concentrations of peptides (RR and D-RR4). Cells stimulated with LPS alone and untreated cells served as controls. Cells were incubated for six hours at 37 °C and the supernatant from each treatment was collected and stored at −20 °C until use. Tumor necrosis factor-α (TNF-α) and interleukin-6 (IL-6) present in the supernatant was quantified using ELISA, as described previously. Cytokine levels were presented as the percent change relative to the LPS-stimulated control, using triplicate samples for each treatment condition.

[8] = tested on: TNF-α; assay: as above; assay type: cell-based, murine; conditions: J774A.1 cells, LPS 150 ng/mL, six hours
Method: as §4, §5

[9] = tested on: LPS-induced activation of the LAL enzyme (Limulus amoebocyte lysate); assay: Binding of peptides to lipopolysaccharide (LAL assay); assay type: biochemical; conditions: one EU of LPS, 37 °C, 30 minutes
Method: as §4
To determine the peptides’ ability to bind to LPS, a Limulus amoebocyte lysate (LAL) kit (Genscript, USA Inc.) was utilized, as described in previous reports. The peptides were dissolved in pyrogen-free water and serially diluted in the same solvent. The peptides were then incubated with one endotoxin unit (EU) of LPS at 37 °C for 30 minutes in order to permit the peptides to bind LPS. The reaction mixture (50 μL) was added to 50 μL of LAL reagent, and further incubated for 10 minutes. Next, 100 μL of LAL chromogenic substrate was added. The mixture was incubated at 37 °C for six minutes. The optical density (at 545 nm) was determined using a microplate reader. Colistin was used as a positive control. The binding of peptides with LPS was expressed as the percent change relative to the untreated control.

[10] = tested on: P. aeruginosa PAO1 biofilm; assay: Disruption of established biofilms, microtiter dish crystal violet assay; assay type: cell-based; conditions: 32 × MIC, mature (24 hour) biofilm, 24 hours at 37 °C, crystal violet OD 595 nm
Method: Figure 1 Efficacy of peptides on established biofilms of P. aeruginosa PAO1 and A. baumannii ATCC BAA-1605. […] After incubation, wells were washed and biofilms were stained with 0.5% (w/v) crystal violet for 30 minutes. The dye was solubilized with ethanol (95%) and the optical density (595 nm) of the biofilm mass was measured. Experiments were repeated twice independently and the average values are reported.
To examine the peptides’ ability to disrupt bacterial biofilms, the microtiter dish biofilm formation assay was employed[41]–[43].

Row | SMILES | HC50 [2] [µM] | MIC50 [3] [µM] | MIC90 [3] [µM] | MIC90 [4] [µM] | EC50 [5] [µM] | EC50 [6] [µM] | also measured
1 | CC[C@H](C)[C@H](NC(=O)CN)C(=O)NCC(=O)N[C@@H](C)C(=O)N[C@H](C(=O)N[C@@H](CC(C)C)C(=O)N[C@@H](CCCCN)C(=O)N[C@H](C(=O)N[C@@H](CC(C)C)C(=O)N[C@H](C(=O)N[C@H](C(=O)NCC(=O)N[C@@H](CC(C)C)C(=O)N1CCC[C@H]1C(=O)N[C@@H](C)C(=O)N[C@@H](CC(C)C)C(=O)N[C@H](C(=O)N[C@@H](CO)C(=O)N[C@@H](Cc1c[nH]c2ccccc12)C(=O)N[C@H](C(=O)N[C@@H](CCCCN)C(=O)N[C@@H](CCCNC(=N)N)C(=O)N[C@@H](CCCCN)C(=O)N[C@@H](CCCNC(=N)N)C(=O)N[C@@H](CCC(N)=O)C(=O)N[C@@H](CCC(N)=O)C(N)=O)[C@@H](C)CC)[C@@H](C)CC)[C@@H](C)O)[C@@H](C)O)C(C)C)C(C)C [Melittin] |  |  |  |  |  |  | toxicity to uninfected worms [1]: completely killed C. elegans after 3 days
2 | CC[C@H](C)[C@H](NC(=O)[C@H](CCCCN)NC(=O)[C@H](CCCCN)NC(=O)[C@H](Cc1c[nH]c2ccccc12)NC(=O)[C@@H](NC(=O)[C@H](CCCCN)NC(=O)[C@@H](NC(=O)[C@H](CCCNC(=N)N)NC(=O)[C@H](CCCNC(=N)N)NC(=O)[C@H](CCCCN)NC(=O)[C@@H](N)Cc1c[nH]c2ccccc12)[C@@H](C)CC)[C@@H](C)CC)C(=O)N[C@@H](CCCNC(=N)N)C(=O)O [RR1] (H-WKRRIKIWKKIR-OH; N-terminus and C-terminus assumed) | > 256 | >128 | >128 | >256 | > 256 | > 256 | MIC [3]: >128 µM; MIC against all tested bacterial strains [4]: > 256 µM; MIC50 ([4]; MIC that inhibited growth of 50% of all isolates (Table 2)): > 256 µM
3 | CC[C@H](C)[C@H](NC(=O)[C@H](Cc1c[nH]c2ccccc12)NC(=O)[C@H](CCCCN)NC(=O)[C@H](CCCCN)NC(=O)[C@@H](NC(=O)[C@H](CCCNC(=N)N)NC(=O)[C@H](CCCNC(=N)N)NC(=O)[C@@H](NC(=O)[C@@H](N)Cc1c[nH]c2ccccc12)[C@@H](C)CC)[C@@H](C)CC)C(=O)N[C@@H](CCCNC(=N)N)C(=O)N[C@@H](CCCNC(=N)N)C(=O)N[C@H](C(=O)N[C@@H](Cc1c[nH]cn1)C(=O)N[C@@H](CCCCN)C(=O)O)C(C)C [RR2] (H-WIRRIKKWIRRVHK-OH; N-terminus and C-terminus assumed) | 256 | 32 (≈ 63.2 µg/mL) | 32 (≈ 63.2 µg/mL) | 8 (≈ 15.8 µg/mL) | 128 | 64 | Therapeutic index (TI) RBCs [2]: 64; MIC50 [4]: 4 µM (≈ 7.9 µg/mL)
4 | CC[C@H](C)[C@H](NC(=O)[C@H](CCCNC(=N)N)NC(=O)[C@H](CCCNC(=N)N)NC(=O)[C@H](CC(C)C)NC(=O)[C@@H](N)Cc1c[nH]c2ccccc12)C(=O)N[C@@H](CCCCN)C(=O)N[C@@H](C)C(=O)N[C@@H](Cc1c[nH]c2ccccc12)C(=O)N[C@@H](CC(C)C)C(=O)N[C@@H](CCCNC(=N)N)C(=O)N[C@@H](CCCNC(=N)N)C(=O)N[C@@H](CCCCN)C(=O)N[C@@H](CCCNC(=N)N)C(=O)N[C@@H](CCCCN)C(=O)O [RR3] (H-WLRRIKAWLRRKRK-OH; N-terminus and C-terminus assumed) | > 256 | 16 (≈ 31.5 µg/mL) | 32 (≈ 62.9 µg/mL) | 16 (≈ 31.5 µg/mL) | 128 | 128 | Therapeutic index (TI) RBCs [2]: 64; MIC50 [4]: 8 µM (≈ 15.7 µg/mL)
5 | CC[C@H](C)[C@H](NC(=O)[C@H](CCCNC(=N)N)NC(=O)[C@H](CCCNC(=N)N)NC(=O)[C@H](CC(C)C)NC(=O)[C@@H](N)Cc1c[nH]c2ccccc12)C(=O)N[C@@H](CCCCN)C(=O)N[C@@H](C)C(=O)N[C@@H](Cc1c[nH]c2ccccc12)C(=O)N[C@@H](CC(C)C)C(=O)N[C@@H](CCCNC(=N)N)C(=O)N[C@@H](CCCNC(=N)N)C(=O)O [RR] (H-WLRRIKAWLRR-OH; N-terminus and C-terminus assumed) |  |  |  |  |  |  | decrease of IL-6 production ([7]; 10 µM): 75.4%; decrease of IL-6 production ([7]; 20 µM): 96.5%; decrease of TNF-α production ([8]; 10 µM): 24.4%; decrease of TNF-α production ([8]; 20 µM): 84.0%; inhibition of LPS-induced activation of the LAL enzyme ([9]; 5 µM peptide): 21.3%; inhibition of LPS-induced activation of the LAL enzyme ([9]; 10 µM peptide): 43.2%; inhibition of LPS-induced activation of the LAL enzyme ([9]; 15 µM peptide): 59.6%; inhibition of LPS-induced activation of the LAL enzyme ([9]; 20 µM peptide): 82.4%
6 | CNC(C)C1CCC(N)C(OC2C(N)CC(N)C(OC3OCC(C)(O)C(NC)C3O)C2O)O1 (stereo not drawn) [gentamicin] |  |  |  |  |  |  | biofilm mass disrupted [10]: 50%
7 | NC[C@H]1O[C@H](O[C@H]2[C@H](O)[C@@H](O[C@H]3O[C@H](CO)[C@@H](O)[C@H](N)[C@H]3O)[C@H](N)C[C@@H]2N)[C@H](N)C[C@@H]1O [tobramycin] |  |  |  |  |  |  | biofilm mass disrupted [10]: 50%
